“Also recorded” adds a separate entry of the source. Ends that are not written are not given here.
Assays:
[1] = target: T1, GRIP PDZ4-6 (Rattus norvegicus, UniProt P97879); test: Competitive binding of 35S-EphB2 to His-GRIP-PDZ4-6
T1 construct: corresponding to GRIP1 (amino acid 448-792); made in house; host or cells: E. coli BL21
T1 sequence (P97879 448-792): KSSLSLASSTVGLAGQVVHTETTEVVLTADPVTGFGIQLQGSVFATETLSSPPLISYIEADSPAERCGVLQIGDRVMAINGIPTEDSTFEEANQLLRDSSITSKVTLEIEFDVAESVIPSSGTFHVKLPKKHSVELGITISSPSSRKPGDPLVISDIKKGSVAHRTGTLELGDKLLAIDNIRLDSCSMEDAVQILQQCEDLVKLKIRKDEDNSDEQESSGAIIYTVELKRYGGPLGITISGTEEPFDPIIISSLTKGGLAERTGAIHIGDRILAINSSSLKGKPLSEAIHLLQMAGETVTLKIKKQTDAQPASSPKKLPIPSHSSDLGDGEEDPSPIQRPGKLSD
Procedure: A competitive binding assay was prepared to determine if the LTP inhibitory effects of the GluR2ct peptide were mediated through disruption of binding between Eph receptors and PDZ domain 6 of GRIP (Torres et al., Neuron 21, 1453-63. (1998)) as opposed to disruption of binding between the GluR2 subunit and the GluR2-binding PDZ 4 and 5 domains of GRIP (Dong et al., Nature 386, 279-84. (1997)). For this purpose, a binding assay was established between GRIP PDZ domain fragments (His-GRIP-PDZ4-6) and an EphB2 carboxy terminal fusion protein labeled with ^35S-methionine (^35S-EphB2).
Briefly, the carboxy terminal region of EphB2 corresponding to mouse EphB2 receptor (amino acid 930-993) was generated by PCR from mouse brain library and subcloned into pGEX2TK (Pharmacia). The GRIP(PDZ4-6) construct, corresponding to GRIP1 (amino acid 448-792) was obtained by PCR from an adult rat hippocampal library and subcloned into pRSET vector. E coli (strain BL21) were transformed with His-GRIP(PDZ4-6) and GST-EphB2 and protein production induced with IPTG. GST-EphB2 protein was purified on glutathionine beads and ^35S-EphB2 cleaved from GST with thrombin (1 U/μg). GRIP(PDZ4-6) protein was purified on Ni-NTA agarose, and eluted with imadazole. ^35S-EphB2 (50 nM) was incubated with (15 μg) of His-GRIP(PDZ4-6) protein in PBS buffer with protease inhibitors for 2 hrs at 22° C. in the absence or presence of peptides. ^35S-EphB2 binding to His-GRIP(PDZ4-6) was determined after a 45 min incubation with Ni-NTA agarose and vacuum filtration onto Whatman GFB filter circles (pretreated with 3% BSA). Filters were washed with ice-cold PBS buffer, allowed to equilibrate overnight in ECOLUME scintillation cocktail (ICN pharmaceuticals, Irvine Calif.), and specific counts measured in a scintillation counter. Non-specific binding was defined as the residual binding measured in the absence of His-GRIP(PDZ4-6).

[2] = system: mossy fiber synapses of hippocampal CA3 pyramidal neurons; test: Mossy fiber LTP, whole-cell patch clamp in hippocampal slices; type: cell-based, mice; conditions: for LTP (potentiation of the EPSC after tetanic stimulation): peptide 50 μM in patch electrode (postsynaptic), 25 to 30 minutes after tetanic stimulation; for LTP PPR (paired pulse ratio after LTP induction) / control PPR (paired pulse ratio before LTP induction): 40 ms interval
Procedure: The role of the GluR2 subunit in LTP at mossy fiber terminals was evaluated in whole cell patch clamp experiments using hippocampal CA3 pyramidal neurons. Briefly, transverse hippocampal slices (350 μm) were made from P12-18 mice (strain 129SvEv) as previously described (Contractor et al., Neuron 29, 209-16. (2001)). Slices were transferred to a recording chamber, and whole-cell patch clamp recordings made from visually identified pyramidal cells in the CA3 region of the hippocampus. The recording electrode (i.e., patch electrode) is filled with an “internal” solution described below. A seal between the glass of the electrode and the membrane of the cell is made. The seal is then “broken through” by pushing the electrode through the membrane to gain low resistance access to the cell interior and enable voltage clamping of the cell membrane. This also allows dialysis of the cell with test reagents such as peptides and antibodies. A stimulating electrode is attached to a current source and allows current to stimulate action potentials while a reference electrode is placed in the recording bath. The composition of the internal solution was: 95 mM CsF, 25 mM CsCl, 10 mM Cs-HEPES, 10 mM Cs-EGTA, 2 mM NaCl, 2 mM Mg-ATP, 10 mM QX-314, 5 mM TEA-Cl, 5 mM 4-AP, pH adjusted to 7.3 with CsOH.
Peptides were added directly to the internal solution on the day of the experiment from frozen stocks in protease inhibitors made up in phosphate buffered saline (PBS). To avoid leakage of peptides or antibodies into the extracellular space, pipette tips were filled with normal internal solution and then the pipette was backfilled with peptide/antibody containing internal fluid. The final concentration of peptides was 50 μM in all experiments. The final concentration of protease inhibitors were: bestatin 2 μg/ml, leupeptin 25 ng/ml, pepstatin 35 ng/ml, aprotinin 100 ng/ml.
In control experiments where peptides were not included, internal solutions were made up in exactly the same way with protease inhibitors in PBS but lacking any added peptide. Antibodies were made up in PBS stock and added directly to the internal solution at a final concentration of 20 μg/ml. The pH and osmolarity of all internal solutions were checked before use. Series resistances (Rs) were generally <10M and were continuously monitored throughout the duration of the experiment. […] Experiments using mutant mice were performed with heterozygous breedings blind to the genotype of the animal.
Mossy fiber EPSCs were evoked with a monopolar glass electrode positioned in the stratum lucidum. EPSCs were evaluated using a 40 ms interval between recordings. All recordings were made in the continuous presence of bicuculline (10 μM), picrotoxin (50 μM) and the NMDA receptor antagonist D-AP5 [D(-)-2-Amino-5-phosphonopentanoic acid; 50 μM]. The group II mGluR agonist, LCCG-1 (10 μM), which selectively depresses mossy fiber transmission, was applied at the end of each experiment. LTP was induced by tetanic stimulation comprising three 1 s stimulations (100 Hz) with a 10 s interval. Data are presented as mean±SEM. Parameters were compared using the Student's unpaired t-test where not specified, and the K-S test, p<0.05 was considered significant.
Cumulative probability is determined by ranking the EPSC data set from the highest to the lowest value from 20 to 30 minutes post tetanization. Each point is graphed with its corresponding percentile. […] The lowest LTP value was about 40% signified by the lowest point on the 1 st graph (open circles) and the largest LTP was about 160%.

[3] = system: mossy fiber synapses of hippocampal CA3 pyramidal neurons; test: Forskolin-mediated potentiation of mossy fiber EPSCs; type: cell-based, mice; conditions: EphB2 peptide in recording electrode
[4] = target: T2, EphA8 (Mus musculus, UniProt O09127); conditions: read-out: Kd for binding to EphA8; cited from earlier work
T2 sequence (O09127 27-1004): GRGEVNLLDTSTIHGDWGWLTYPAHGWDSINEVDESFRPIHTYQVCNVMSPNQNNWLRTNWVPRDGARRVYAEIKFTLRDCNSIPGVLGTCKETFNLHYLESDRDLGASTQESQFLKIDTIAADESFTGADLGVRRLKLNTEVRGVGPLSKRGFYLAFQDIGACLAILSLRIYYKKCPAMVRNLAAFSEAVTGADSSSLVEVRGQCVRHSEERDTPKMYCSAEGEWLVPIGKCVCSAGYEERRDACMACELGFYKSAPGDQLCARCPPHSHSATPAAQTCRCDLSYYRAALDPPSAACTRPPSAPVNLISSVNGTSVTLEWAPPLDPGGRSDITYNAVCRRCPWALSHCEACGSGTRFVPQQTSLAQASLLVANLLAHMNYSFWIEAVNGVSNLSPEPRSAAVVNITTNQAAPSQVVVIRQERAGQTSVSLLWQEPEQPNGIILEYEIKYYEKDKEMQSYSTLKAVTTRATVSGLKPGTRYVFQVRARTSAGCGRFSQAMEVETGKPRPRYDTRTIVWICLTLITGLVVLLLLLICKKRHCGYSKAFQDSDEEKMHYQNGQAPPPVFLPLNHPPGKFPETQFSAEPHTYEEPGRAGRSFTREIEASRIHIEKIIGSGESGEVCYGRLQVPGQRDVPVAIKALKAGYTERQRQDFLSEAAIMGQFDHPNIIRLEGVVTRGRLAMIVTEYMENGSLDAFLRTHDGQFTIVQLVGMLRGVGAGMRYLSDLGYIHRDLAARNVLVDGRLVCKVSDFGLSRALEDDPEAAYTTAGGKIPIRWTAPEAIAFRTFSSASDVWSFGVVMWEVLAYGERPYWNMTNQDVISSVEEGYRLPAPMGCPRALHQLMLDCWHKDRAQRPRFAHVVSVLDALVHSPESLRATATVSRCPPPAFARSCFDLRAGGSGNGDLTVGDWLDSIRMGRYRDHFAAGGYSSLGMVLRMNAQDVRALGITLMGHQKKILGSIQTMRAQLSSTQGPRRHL

[5] = target: EphA3; conditions: read-out: Kd for binding to EphA3; cited from earlier work
[6] = target: T3, His-GRIP(PDZ4-6) (rat, UniProt P97879 448-792); test: displacement of ^35S-EphB2 (50 nM) from His-GRIP-PDZ4-6, Hill fit
T3 construct: range 448-792; not shown: His tag and vector residues from pRSET
T3 sequence (looked up): T1 sequence (P97879 448-792)

[7] = target: postsynaptic EphB receptors; test: cell-based or functional assay
[8] = peptide 50 μM in patch electrode
[9] = peptide in patch electrode (postsynaptic)
[10] = peptide in patch electrode, 20 to 30 minutes post tetanization

Q: With NVIYVKSEIG [R2ctSC, reference compound] as the molecule, how does the “displacement of labeled EphB2 from GRIP PDZ4-6” value ([1]; concentrations of up to 10 μM peptide, listed as GluR2ctSC) read?
A: unable to displace binding; also recorded: do not inhibit binding of EphB2 to GRIP

Q: And the “LTP (potentiation of the EPSC after tetanic stimulation)” value [2]?
A: 200±11%

Q: And the “LTP PPR (paired pulse ratio after LTP induction)” value [2, 8]?
A: 2.4±0.10

Q: And the “control PPR (paired pulse ratio before LTP induction)” value [2, 8]?
A: 3.1±0.19

Q: What about the “effect on basal synaptic transmission / basal EPSC amplitudes” value ([2]; peptide in patch electrode) of the same molecule?
A: stable

Q: What about the “effect on tetanus induced LTP” value [2, 9] of the same molecule?
A: little effect on induction of LTP

Q: What about the “effect on tetanus induced LTP” value ([2]; peptide in patch electrode (postsynaptic), listed as GluR2ctSC) of the same molecule?
A: do not inhibit LTP

Q: With “QMNQIQSVEV [EphB2 peptide, Gln-Met-Asn-Gln-Ile-Gln-Ser-Val-Glu-Val]” as the molecule, how does the Ki ([1]; 35S-EphB2 50 nM, fitted to the Hill equation, read-out: Ki, displacement of 35S-EphB2 binding to His-GRIP-PDZ 4-6) read?
A: 43 nM

Q: What about the “LTP (potentiation of the EPSC after tetanic stimulation)” value [2] of the same molecule?
A: 125±15%

Q: What about the “LTP PPR (paired pulse ratio after LTP induction)” value [2, 8] of the same molecule?
A: 2.5±0.27

Q: And the “control PPR (paired pulse ratio before LTP induction)” value [2, 8]?
A: 2.5±0.22

Q: And the “PTP (post-tetanic potentiation)” value ([2]; peptide 50 μM in patch electrode, immediately following tetanic stimulation)?
A: 500±76%

Q: What about the “effect on PTP” value [2, 9] of the same molecule?
A: significantly impaired; also recorded: significantly depressed

Q: What about the “effect on tetanus induced LTP” value [2, 9] of the same molecule?
A: significantly impaired; also recorded: inhibit mossy fiber hippocampal CA3 neuronal LTP; also recorded: significantly depressed

Q: And the “largest LTP of single recordings (cumulative probability, FIG. 5)” value [2, 10]?
A: about 160%

Q: And the “lowest LTP value of single recordings (cumulative probability, FIG. 5)” value [2, 10]?
A: about 40%

Q: And the “forskolin-mediated potentiation with peptide in the recording electrode” value [3]?
A: 209±20%

B1: ephrin-A5: a 28 kDa, 228 amino acid glycoprotein; ephrin ligand (protein, UniProt P52803 1-228, looked up)
chain: MLHVEMLTLVFLVLWMCVFSQDPGSKAVADRYAVYWNSSNPRFQRGDYHIDVCINDYLDVFCPHYEDSVPEDKTERYVLYMVNFDGYSACDHTSKGFKRWECNRPHSPNGPLKFSEKFQLFTPFSLGFEFRPGREYFYISSAIPDNGRRSCLKLKVFVRPTNSCMKTIGVHDRVFDVNDKVENSLEPADDTVHESAEPSRGENAAQTPRIPSRLLAILLFLLAMLLTL
modifications: full-length
notes: a 28 kDa, 228 amino acid glycoprotein; ephrin ligand
Q: For B1, which Kd [4] is on record?
A: 0.5 nM

B2: ephrin-A3: a 238 amino acid polypeptide; ephrin ligand (protein, UniProt P52797 1-238, looked up)
chain: MAAAPLLLLLLLVPVPLLPLLAQGPGGALGNRHAVYWNSSNQHLRREGYTVQVNVNDYLDIYCPHYNSSGVGPGAGPGPGGGAEQYVLYMVSRNGYRTCNASQGFKRWECNRPHAPHSPIKFSEKFQRYSAFSLGYEFHAGHEYYYISTPTHNLHWKCLRMKVFVCCASTSHSGEKPVPTLPQFTMGPNVKINVLEDFEGENPQVPKLEKSISGTSPKREHLPLAVGIAFFLMTFLAS
modifications: full-length
notes: a 238 amino acid polypeptide; ephrin ligand
Q: Which Kd [5] does the source give for B2 here?
A: 5 nM

Q: What about the Kd [4] of the same molecule?
A: 1.1 nM

Q: Which Ki [6] does the source give for QMNQIQSVEV (also called EphB2 peptide) [EphB2 carboxy terminal peptide] here?
A: 43 nM

B3: ephrin-B1-Fc fusion protein (Fc fusion, mouse, not shown: a dimerising Fc or GST)
chain (part 1 of 2): ATPLAKNLEPVSWSSLNPKFLSGKGLVIYPKIGDKLDIICPRAEAGRPYEYYKLYLVRPEQAAACSTVLDPNVLVTCNKPHQEIRFTIKFQEFSPNYMGLEFKKYHDYYITSTSNGSLEGLENREGGVCRTRTMKIVMKVGQDPNAVTPEQLTTSRPSKESDNTVKTATQAPGRGSQGDSDGKHETVNQEEKSGPGAGGGGSGDSIEGRMD
chain (part 2 of 2): HHHHH
Q: For B3, which LTP after tetanus in the presence of ephrinB1-Fc (5 µg/ml) [7] is on record?
A: 139%

Q: And the forskolin potentiation of mossy fiber EPSCs after pre-application of ephrin-B1-Fc [7]?
A: 219%

Q: And the post-tetanic potentiation [7]?
A: 430%

— patent US20040241754A1, “Modulating neuronal plasticity” (The Salk Institute for Biological Studies, priority 2003, published 2004)
